Source: patent US10526309B2, “Pan-TAM inhibitors and Mer/Axl dual inhibitors” (The University of North Carolina at Chapel Hill, priority 2015, dated 2020)
Read-outs that look alike come from different tables or passages of the source.

Assays:
[1] = target: T1, Mer (Homo sapiens, UniProt Q12866); assay: Mer kinase inhibition IC50; format: biochemical
T1 sequence (Q12866 21-999): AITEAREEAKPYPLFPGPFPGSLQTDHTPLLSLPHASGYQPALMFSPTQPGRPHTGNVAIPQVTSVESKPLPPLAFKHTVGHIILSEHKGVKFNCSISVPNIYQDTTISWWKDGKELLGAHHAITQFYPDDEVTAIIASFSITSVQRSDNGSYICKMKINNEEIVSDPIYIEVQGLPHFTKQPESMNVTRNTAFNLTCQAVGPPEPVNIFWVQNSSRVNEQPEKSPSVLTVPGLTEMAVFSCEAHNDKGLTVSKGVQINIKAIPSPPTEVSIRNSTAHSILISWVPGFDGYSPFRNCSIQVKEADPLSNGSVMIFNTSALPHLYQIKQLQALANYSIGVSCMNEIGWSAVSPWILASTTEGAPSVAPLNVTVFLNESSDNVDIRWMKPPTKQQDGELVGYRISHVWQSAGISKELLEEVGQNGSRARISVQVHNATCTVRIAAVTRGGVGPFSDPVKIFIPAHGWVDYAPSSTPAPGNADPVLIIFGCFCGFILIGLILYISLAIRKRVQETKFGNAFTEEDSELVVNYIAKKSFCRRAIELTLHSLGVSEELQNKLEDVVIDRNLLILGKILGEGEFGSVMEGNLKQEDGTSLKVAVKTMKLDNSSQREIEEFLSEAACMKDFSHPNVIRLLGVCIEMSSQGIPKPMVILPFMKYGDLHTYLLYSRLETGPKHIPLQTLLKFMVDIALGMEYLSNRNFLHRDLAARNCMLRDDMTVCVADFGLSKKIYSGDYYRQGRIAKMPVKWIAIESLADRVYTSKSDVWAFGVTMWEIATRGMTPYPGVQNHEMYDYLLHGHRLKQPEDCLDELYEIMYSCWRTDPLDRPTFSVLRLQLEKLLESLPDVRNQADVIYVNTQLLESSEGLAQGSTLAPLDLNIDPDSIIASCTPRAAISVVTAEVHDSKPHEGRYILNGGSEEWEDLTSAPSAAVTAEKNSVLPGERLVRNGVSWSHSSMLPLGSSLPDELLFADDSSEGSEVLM

[2] = target: T2, Tyro3 (Homo sapiens, UniProt Q06418); assay: Tyro3 kinase inhibition IC50; format: biochemical; conditions: read-out: Tyro3 IC50
T2 sequence (Q06418 41-890): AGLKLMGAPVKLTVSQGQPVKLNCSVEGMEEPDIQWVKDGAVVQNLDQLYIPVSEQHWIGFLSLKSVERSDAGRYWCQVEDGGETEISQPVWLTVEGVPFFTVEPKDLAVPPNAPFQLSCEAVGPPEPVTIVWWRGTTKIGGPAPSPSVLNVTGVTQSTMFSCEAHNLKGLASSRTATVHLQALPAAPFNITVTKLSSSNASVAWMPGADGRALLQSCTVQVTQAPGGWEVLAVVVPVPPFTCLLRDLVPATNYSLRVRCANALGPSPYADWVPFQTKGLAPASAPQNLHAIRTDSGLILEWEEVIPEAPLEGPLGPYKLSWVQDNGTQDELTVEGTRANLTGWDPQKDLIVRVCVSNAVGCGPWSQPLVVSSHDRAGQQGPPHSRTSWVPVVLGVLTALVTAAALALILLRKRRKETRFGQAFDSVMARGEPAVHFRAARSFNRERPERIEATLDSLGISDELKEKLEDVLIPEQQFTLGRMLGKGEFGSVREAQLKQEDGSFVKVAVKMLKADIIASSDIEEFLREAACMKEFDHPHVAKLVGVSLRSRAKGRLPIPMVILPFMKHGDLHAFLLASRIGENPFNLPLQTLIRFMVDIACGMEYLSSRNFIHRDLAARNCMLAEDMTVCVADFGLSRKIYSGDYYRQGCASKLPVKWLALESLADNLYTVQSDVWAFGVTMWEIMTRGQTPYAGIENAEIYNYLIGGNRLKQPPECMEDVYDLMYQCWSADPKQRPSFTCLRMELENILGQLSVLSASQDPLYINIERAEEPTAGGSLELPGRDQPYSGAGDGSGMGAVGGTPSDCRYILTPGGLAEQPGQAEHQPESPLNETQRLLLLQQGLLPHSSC

[3] = test system: MDA-MB-231 cells; assay: Invasion of MDA-MB-231 multicellular tumor spheroids in 3D collagen matrix; format: cell-based; conditions: MDA-MB-231 spheroids, 24 hours in collagen culture; in comparison to UNC1653, UNC2025, UNC2250
Text: The invasion of triple negative highly aggressive breast adenocarcinoma cells (MDA-MB-231) cultured as multicellular tumor spheroids (MTSs) in a 3D collagen matrix was examined.

[4] = target: T3, Axl (Homo sapiens, UniProt P30530); assay: Axl kinase inhibition IC50; format: biochemical
T3 sequence (P30530 26-894): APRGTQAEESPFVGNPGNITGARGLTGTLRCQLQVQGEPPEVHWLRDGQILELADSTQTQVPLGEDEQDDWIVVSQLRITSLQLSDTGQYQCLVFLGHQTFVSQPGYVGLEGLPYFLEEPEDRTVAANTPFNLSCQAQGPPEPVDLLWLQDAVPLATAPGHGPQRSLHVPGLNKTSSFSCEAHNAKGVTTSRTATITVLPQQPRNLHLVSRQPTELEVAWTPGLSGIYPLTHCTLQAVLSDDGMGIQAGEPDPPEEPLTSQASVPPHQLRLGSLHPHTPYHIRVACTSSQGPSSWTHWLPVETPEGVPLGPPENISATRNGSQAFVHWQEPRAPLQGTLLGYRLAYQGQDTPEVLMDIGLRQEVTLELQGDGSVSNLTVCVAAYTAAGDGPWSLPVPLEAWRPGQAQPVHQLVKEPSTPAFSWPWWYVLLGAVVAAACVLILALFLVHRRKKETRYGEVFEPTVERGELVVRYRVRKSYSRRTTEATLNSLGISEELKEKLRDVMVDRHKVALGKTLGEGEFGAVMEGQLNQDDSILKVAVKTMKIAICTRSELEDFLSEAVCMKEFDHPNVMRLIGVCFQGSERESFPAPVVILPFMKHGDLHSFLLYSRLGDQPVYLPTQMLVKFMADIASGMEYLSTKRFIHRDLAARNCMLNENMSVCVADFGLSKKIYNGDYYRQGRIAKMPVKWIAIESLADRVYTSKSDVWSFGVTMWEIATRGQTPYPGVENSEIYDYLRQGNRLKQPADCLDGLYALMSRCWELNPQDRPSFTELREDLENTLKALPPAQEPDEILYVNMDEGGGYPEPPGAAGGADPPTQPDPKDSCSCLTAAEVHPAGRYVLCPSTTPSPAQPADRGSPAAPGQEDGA

IC50 ([1]; Example 6, read-out: MerTK IC50): 0.98 nM | IC50 ([1]; Table 1, read-out: Mer IC50): < 10 nM | IC50 ([2]; Example 6): 0.56 nM | IC50 ([2]; Table 1): < 10 nM | IC50 ([4]; Example 6): 5.5 nM | IC50 ([4]; Table 1): < 10 nM
SMILES: O[C@H]1CC[C@H](Nc2nc(Nc3ccccc3)ncc2-c2ccc(CN3CCCC3)cn2)CC1 [UNC4198A]
levels of invasion [3]: decreased levels of invasion
